“And” between values parts separate entries of the source, which are not always exact repeats. Equal entries are not always repeated. Inconclusive results and toxic doses are left out.
Tested on: BDF1 mice, L1210 Methyl-GAG-resistant leukemia, survival T/C
Assay: NCI In Vivo Anticancer Drug Screen. Data for tumor model L1210 Leukemia resistant to Methyl-GAG; NSC 32946 (subcutaneous) in B6D2F1 (BDF1) mice
Conditions: endpoint: mean survival time, schedule: Q01DX Z (ip), higher = longer survival
Protocol: The antitumor activity of compounds was measured in mice bearing transplantable tumors. Survival or tumor size were measured and the results are expressed as the measurement made in the treated group (T) divided by the measurement made in the vehicle treated control group (C). The tumor model used in this assay is L1210 Leukemia resistant to Methyl-GAG; NSC 32946 (subcutaneous) in B6D2F1 (BDF1) mice

[1] = dose: 125.0 mg/kg/injection, vehicle: saline
[2] = dose: 250.0 mg/kg/injection, vehicle: saline
[3] = dose: 2000.0 mg/kg/injection, vehicle: saline
[4] = dose: 12.5 mg/kg/injection, vehicle: saline
[5] = dose: 25.0 mg/kg/injection, vehicle: saline
[6] = dose: 0.31 mg/kg/injection, vehicle: carboxymethylcellulose (CMC)
[7] = dose: 0.63 mg/kg/injection, vehicle: carboxymethylcellulose (CMC)
[8] = dose: 1.25 mg/kg/injection, vehicle: carboxymethylcellulose (CMC)
[9] = dose: 2.5 mg/kg/injection, vehicle: carboxymethylcellulose (CMC)
[10] = dose: 25.0 mg/kg/injection, vehicle: carboxymethylcellulose (CMC)
[11] = dose: 5.0 mg/kg/injection, vehicle: carboxymethylcellulose (CMC)
[12] = dose: 500.0 mg/kg/injection, vehicle: saline
[13] = dose: 1000.0 mg/kg/injection, vehicle: saline

## C[C@H](N)C(=O)N[C@@H]1[C@H]2C(=C(O)C[C@@H](O)[C@@H]2O)C(=O)O[C@@H]1C
dose: 31.25 mg/kg/injection, vehicle: saline
  T/C: 96 % of control
[1]
  T/C: 102 % of control
[2]
  T/C: 116 % of control
[3]
  T/C: 96 % of control

## c1ccc(CNc2ncnc3[nH]ncc23)cc1
dose: 0.97 mg/kg/injection, vehicle: carboxymethylcellulose (CMC)
  T/C: 107 % of control
dose: 1.95 mg/kg/injection, vehicle: carboxymethylcellulose (CMC)
  T/C: 102 % of control
dose: 3.9 mg/kg/injection, vehicle: carboxymethylcellulose (CMC)
  T/C: 108 % of control and 121 % of control
dose: 7.8 mg/kg/injection, vehicle: carboxymethylcellulose (CMC)
  T/C: 100 % of control and 103 % of control
dose: 15.5 mg/kg/injection, vehicle: carboxymethylcellulose (CMC)
  T/C: 107 % of control
dose: 31.0 mg/kg/injection, vehicle: carboxymethylcellulose (CMC)
  T/C: 110 % of control

## O=c1cnn(C2OC(CO)C(O)C2O)c(=O)[nH]1 (stereo unspecified)
dose: 8.0 mg/kg/injection, vehicle: water
  T/C: 112 % of control
dose: 16.0 mg/kg/injection, vehicle: water
  T/C: 122 % of control
dose: 1000.0 mg/kg/injection, vehicle: water
  T/C: 110 % of control

## N=[N+]=CC(=O)OCC(N)C(=O)O (stereo unspecified)
dose: 1.56 mg/kg/injection, vehicle: saline
  T/C: 104 % of control
dose: 3.12 mg/kg/injection, vehicle: saline
  T/C: 104 % of control
dose: 4.7 mg/kg/injection, vehicle: saline
  T/C: 100 % of control
[4]
  T/C: 156 % of control and 150 % of control
dose: 18.8 mg/kg/injection, vehicle: saline
  T/C: 104 % of control
[5]
  T/C: 116 % of control

## CCN(CC)C(=S)S
dose: 125.0 mg/kg/injection, vehicle: other
  T/C: 96 % of control
dose: 250.0 mg/kg/injection, vehicle: other
  T/C: 92 % of control
dose: 500.0 mg/kg/injection, vehicle: other
  T/C: 96 % of control
dose: 1000.0 mg/kg/injection, vehicle: other
  T/C: 104 % of control and 114 % of control

## CCN(CC)CCNc1ccc(C)c2sc3ccccc3c(=O)c12
dose: 1.56 mg/kg/injection, vehicle: methylcellulose (MC)
  T/C: 97 % of control
dose: 6.25 mg/kg/injection, vehicle: methylcellulose (MC)
  T/C: 102 % of control
dose: 12.5 mg/kg/injection, vehicle: methylcellulose (MC)
  T/C: 104 % of control
dose: 25.0 mg/kg/injection, vehicle: methylcellulose (MC)
  T/C: 103 % of control and 113 % of control
dose: 50.0 mg/kg/injection, vehicle: methylcellulose (MC)
  T/C: 119 % of control
dose: 100.0 mg/kg/injection, vehicle: methylcellulose (MC)
  T/C: 151 % of control

## CCCCCCCCCCCCNCCCCCCCCCCCC
dose: 7.5 mg/kg/injection, vehicle: carboxymethylcellulose (CMC)
  T/C: 94 % of control
dose: 15.0 mg/kg/injection, vehicle: carboxymethylcellulose (CMC)
  T/C: 101 % of control
dose: 30.0 mg/kg/injection, vehicle: carboxymethylcellulose (CMC)
  T/C: 103 % of control

## Nc1ncnc2c1ccn2C1OC(CO)C(O)C1O (stereo unspecified)
[6]
  T/C: 89 % of control and 97 % of control
[7]
  T/C: 91 % of control and 102 % of control
[8]
  T/C: 97 % of control and 112 % of control
[9]
  T/C: 94 % of control

## C[n+]1c2ccccc2nc2c(N)cc(N)cc21
dose: 1.6 mg/kg/injection, vehicle: carboxymethylcellulose (CMC)
  T/C: 101 % of control
dose: 3.1 mg/kg/injection, vehicle: carboxymethylcellulose (CMC)
  T/C: 102 % of control
dose: 6.3 mg/kg/injection, vehicle: carboxymethylcellulose (CMC)
  T/C: 98 % of control and 104 % of control
dose: 12.5 mg/kg/injection, vehicle: carboxymethylcellulose (CMC)
  T/C: 104 % of control
[10]
  T/C: 104 % of control

## C1CN1c1nc(N2CC2)nc(N2CC2)n1
dose: 62.5 micrograms/kg/injection, vehicle: saline
  T/C: 96 % of control
dose: 250.0 micrograms/kg/injection, vehicle: saline
  T/C: 97 % of control
dose: 1000.0 micrograms/kg/injection, vehicle: saline
  T/C: 110 % of control

## Cc1n[nH]c(=O)[nH]c1=O
dose: 0.8 mg/kg/injection, vehicle: other
  T/C: 100 % of control
dose: 1.6 mg/kg/injection, vehicle: other
  T/C: 102 % of control
dose: 3.1 mg/kg/injection, vehicle: other
  T/C: 98 % of control
dose: 6.25 mg/kg/injection, vehicle: other
  T/C: 120 % of control
dose: 6.3 mg/kg/injection, vehicle: other
  T/C: 100 % of control
dose: 12.5 mg/kg/injection, vehicle: other
  T/C: 101 % of control
dose: 25.0 mg/kg/injection, vehicle: other
  T/C: 100 % of control
dose: 50.0 mg/kg/injection, vehicle: other
  T/C: 95 % of control and 103 % of control
dose: 100.0 mg/kg/injection, vehicle: other
  T/C: 91 % of control
dose: 200.0 mg/kg/injection, vehicle: other
  T/C: 88 % of control
dose: 400.0 mg/kg/injection, vehicle: other
  T/C: 89 % of control

## NC(Cc1ccc(N(CCCl)CCCl)cc1)C(=O)O (stereo unspecified)
[8]
  T/C: 104 % of control
[9]
  T/C: 106 % of control
dose: 3.2 mg/kg/injection, vehicle: saline
  T/C: 94 % of control
[11]
  T/C: 106 % of control
dose: 6.3 mg/kg/injection, vehicle: saline
  T/C: 118 % of control
dose: 10.0 mg/kg/injection, vehicle: carboxymethylcellulose (CMC)
  T/C: 120 % of control
[4]
  T/C: 113 % of control
dose: 20.0 mg/kg/injection, vehicle: carboxymethylcellulose (CMC)
  T/C: 98 % of control
[5]
  T/C: 94 % of control

## CCOC(N)=O
[1]
  T/C: 99 % of control
[2]
  T/C: 89 % of control
[12]
  T/C: 101 % of control
[13]
  T/C: 90 % of control

## CCN(CC)c1ccc2cc3ccc(=[N+](CC)CC)cc-3oc2c1
dose: 0.08 mg/kg/injection, vehicle: carboxymethylcellulose (CMC)
  T/C: 117 % of control
dose: 0.16 mg/kg/injection, vehicle: carboxymethylcellulose (CMC)
  T/C: 95 % of control
[6]
  T/C: 91 % of control
dose: 0.32 mg/kg/injection, vehicle: carboxymethylcellulose (CMC)
  T/C: 103 % of control
[7]
  T/C: 91 % of control
[8]
  T/C: 87 % of control
[9]
  T/C: 91 % of control
[11]
  T/C: 95 % of control

## CC(=O)N(C)C
[1]
  T/C: 100 % of control
[2]
  T/C: 94 % of control
[12]
  T/C: 102 % of control
[13]
  T/C: 109 % of control
[3]
  T/C: 105 % of control
dose: 4000.0 mg/kg/injection, vehicle: saline
  T/C: 154 % of control

## C[C@@H]1C[C@H]2CC[C@H](O2)[C@H](C)C(=O)O[C@@H](C)C[C@@H]2CC[C@@H](O2)[C@@H](C)C(=O)O[C@H](C)C[C@H]2CC[C@H](O2)[C@H](C)C(=O)O[C@@H](C)C[C@@H]2CC[C@@H](O2)[C@@H](C)C(=O)O1
[10]
  T/C: 97 % of control
dose: 50.0 mg/kg/injection, vehicle: carboxymethylcellulose (CMC)
  T/C: 91 % of control
dose: 100.0 mg/kg/injection, vehicle: carboxymethylcellulose (CMC)
  T/C: 91 % of control
dose: 200.0 mg/kg/injection, vehicle: carboxymethylcellulose (CMC)
  T/C: 97 % of control

— PubChem BioAssay AID306 (DTP/NCI, 2004)
